Measured values: US20230174584A1, “Antibiotic Compounds” (priority 2019, published 2023)
Values after ≈ are worked out from the molar mass of the structure shown.

Tests used:
Test in all cases: MIC assay
E. faecium E7413 = format: cell-based, Enterococcus faecium; conditions: Enterococcus faecium, E7413
Experimental: (§1) The antibacterial activity of the compounds was tested against a panel of bacteria, including Gram-positive bacteria (S. aureus ATCC29213, S. aureus USA300, S. aureus LIM-2, NR-45881, S. aureus HIP13419, NR-46413, E. faecium E155, E. faecium E7314, E. faecium E980, E. faecalis E1246, E. faecalis E7406 and S. pneumonia 153). The antibacterial activity of the compounds was further tested against S. aureus NY-155, NR-46236, S. aureus HIP12864, NR-46074, S. aureus 880 (BR-VRSA), NR-49120, E. faecalis E1246, E. faecalis E7604, as well as some Gram-negative bacteria (Escherichia coli and Klebsiella pneumoniae). Minimum inhibitory concentrations (MICs) in μg/mL were performed according to the CLSI guidelines. From glycerol stocks, bacterial strains were cultured on blood agar plates and incubated at 37° C. for 18 h. A single colony was transferred to tryptic soy broth (TSB) with 0.002% polysorbate 80 (p80). For the Enterococcus, VISA and VRSA strains, the cultures were grown at 37° C. until the optical density of the suspension reached a level equivalent to the 0.5 McFarland standard. The bacterial suspensions were diluted in TSB with 0.002% p80 to reach a bacterial cell density of 10^6 CFU/mL. In case of the other (vancomycin-sensitive) S. aureus strains, the direct colony suspension method was used. For these strains, after transfer of the colonies to TSB with 0.002% p80, they were immediately diluted to 10^6 CFU/mL, instead of incubated prior to this dilution. In the case of S. pneumonia, direct colony suspension was used by immediately suspending multiple colonies from fresh blood agar plates in TSB+0.002% p80 to an OD600 of 0.5 and subsequent dilution to 10^6 CFU mL^−1 in TSB+0.002% p80+5% lysed horse blood. Antibiotic dilutions for this strains were also made in TSB+0.002% p80+5% lysed horse blood. Both agar and microplates containing S. pneumonia were incubated at 37° C. with 5% CO2 for 24 h with constant shaking (600 rpm). […] The cultures were grown to exponential phase (OD600=0.5) at 37° C. […] In polypropylene 96-well microtiter plates, test compounds were added in biological triplicates and serial diluted 2-fold by transfer and mixing from one well to the next to achieve a final volume of 50 μL per well. An equal volume of bacterial suspension (10^6 CFU mL^−1) was added to the wells. The plates were sealed with breathable membranes and incubated at 37° C. for 24 h with constant shaking (600 rpm). In polypropylene microtiter plates, 100 μL of the test compounds was added to the first row in biological triplicates, and 50 μL of media was added to the other wells. The compounds were subjected to serial dilution by transfer and mixing of 50 μL from one well to the next. Subsequently, 50 μL of bacterial suspension (10^6 CFU/mL) was added to the wells. The plates were sealed with breathable membranes and incubated at 37° C. for 24 h with constant shaking (600 rpm). Positive growth control consisted of wells with bacterial suspension and without antibiotic. Negative growth control consisted of solely media without bacterial suspension or antibiotic. The MICs were determined from the median of a minimum of triplicates.

E. faecium EO321 = format: cell-based, Enterococcus faecium; conditions: Enterococcus faecium, EO321
Experimental: as §1

E. faecium E0300 = format: cell-based, Enterococcus faecium; conditions: Enterococcus faecium, E0300
Experimental: as §1

E. faecium E7403 = format: cell-based, Enterococcus faecium; conditions: Enterococcus faecium, E7403
Experimental: as §1

E. faecium E2365 = format: cell-based, Enterococcus faecium; conditions: Enterococcus faecium, E2365
Experimental: as §1

E. faecium E0506 = format: cell-based, Enterococcus faecium; conditions: Enterococcus faecium, E0506
Experimental: as §1

E. faecium E7401 = format: cell-based, Enterococcus faecium; conditions: Enterococcus faecium, E7401
Experimental: as §1

E. faecium E8235 = format: cell-based, Enterococcus faecium; conditions: Enterococcus faecium, E8235
Experimental: as §1

E. faecium E0013 = format: cell-based, Enterococcus faecium; conditions: Enterococcus faecium, E0013
Experimental: as §1

E. faecium E7464 = format: cell-based, Enterococcus faecium; conditions: Enterococcus faecium, E7464
Experimental: as §1

E. faecium E7424 = format: cell-based, Enterococcus faecium; conditions: Enterococcus faecium, E7424
Experimental: as §1

E. faecium E6016 = format: cell-based, Enterococcus faecium; conditions: Enterococcus faecium, E6016
Experimental: as §1

E. faecium E0745 = format: cell-based, Enterococcus faecium; conditions: Enterococcus faecium, E0745
Experimental: as §1

E. faecium E2297 = format: cell-based, Enterococcus faecium; conditions: Enterococcus faecium, E2297
Experimental: as §1

E. faecium E2373 = format: cell-based, Enterococcus faecium; conditions: Enterococcus faecium, E2373
Experimental: as §1

E. faecium E1130 = format: cell-based, Enterococcus faecium; conditions: Enterococcus faecium, E1130
Experimental: as §1

E. faecium E1679 = format: cell-based, Enterococcus faecium; conditions: Enterococcus faecium, E1679
Experimental: as §1

E. faecium E7329 = format: cell-based, Enterococcus faecium; conditions: Enterococcus faecium, E7329
Experimental: as §1

E. faecium E8218 = format: cell-based, Enterococcus faecium; conditions: Enterococcus faecium, E8218
Experimental: as §1

E. faecium E0338 = format: cell-based, Enterococcus faecium; conditions: Enterococcus faecium, E0338
E. faecalis E1246 = format: cell-based, Enterococcus faecalis
Experimental: as §1

[1] = E. faecalis E1246 VRE (vanA), Table 9

CCCCCCCCCCNCCN[C@@]1(C)C[C@H](O[C@H]2[C@H](Oc3c4cc5cc3Oc3ccc(cc3Cl)[C@@H](O)[C@@H](NC(=O)[C@@H](CC(C)C)NC)C(=O)N[C@@H](CC(N)=O)C(=O)N[C@H]5C(=O)N[C@H]3C(=O)N[C@H](C(=O)N[C@H](C(=O)O)c5cc(O)c(CNCP(=O)(O)O)c(O)c5-c5cc3ccc5O)[C@H](O)c3ccc(c(Cl)c3)O4)O[C@H](CO)[C@@H](O)[C@@H]2O)O[C@@H](C)[C@H]1O [Telavancin, reference compound]
MIC (E. faecium E7413): 8 µg/mL (≈ 4.56 µM) | MIC (E. faecium EO321): 16 µg/mL (≈ 9.11 µM) | MIC (E. faecium E0300): 8 µg/mL (≈ 4.56 µM) | MIC (E. faecium E7403): ≤ 0.008 µg/mL | MIC (E. faecium E2365): ≤ 0.008 µg/mL | MIC (E. faecium E0506): 4 µg/mL (≈ 2.28 µM) | MIC (E. faecium E7401): ≤ 0.008 µg/mL | MIC (E. faecium E8235): ≤ 0.008 µg/mL | MIC (E. faecium E0013): 4 µg/mL (≈ 2.28 µM) | MIC (E. faecium E7464): ≤ 0.008 µg/mL | MIC (E. faecium E7424): ≤ 0.008 µg/mL | MIC (E. faecium E6016): 4 µg/mL (≈ 2.28 µM) | MIC (E. faecium E0745): 4 µg/mL (≈ 2.28 µM) | MIC (E. faecium E2297): 4 µg/mL (≈ 2.28 µM) | MIC (E. faecium E2373): 8 µg/mL (≈ 4.56 µM) | MIC (E. faecium E1130): ≤ 0.008 µg/mL | MIC (E. faecium E1679): 16 µg/mL (≈ 9.11 µM) | MIC (E. faecium E7329): ≤ 0.008 µg/mL | MIC (E. faecium E8218): ≤ 0.008 µg/mL | MIC (E. faecium E0338): 8 µg/mL (≈ 4.56 µM) | MIC (E. faecalis E1246; [1]): 4 µg/mL (≈ 2.28 µM) | MIC (E. faecalis E1246; Enterococcus faecalis, VRE): 4 µg/mL (≈ 2.28 µM)

CN[C@H](CC(C)C)C(=O)N[C@H]1C(=O)N[C@@H](CC(N)=O)C(=O)N[C@H]2C(=O)N[C@H]3C(=O)N[C@H](C(=O)N[C@H](C(=O)O)c4cc(O)cc(O)c4-c4cc3ccc4O)[C@H](O[C@H]3C[C@](C)(N)[C@@H](O)[C@H](C)O3)c3ccc(c(Cl)c3)Oc3cc2cc(c3O[C@@H]2O[C@H](CO)[C@@H](O)[C@H](O)[C@H]2O[C@H]2C[C@](C)(NCc3ccc(-c4ccc(Cl)cc4)cc3)[C@@H](O)[C@H](C)O2)Oc2ccc(cc2Cl)[C@H]1O [Oritavancin]
MIC (E. faecalis E1246; [1]): 1 µg/mL (≈ 0.558 µM) | MIC (E. faecalis E1246; Enterococcus faecalis, VRE): 1 µg/mL (≈ 0.558 µM)
